Test results: patent US20220339227A1, “COMPOSITIONS OF CANNABINOIDS FOR DELIVERY BY INHALATION” (priority 2019, published 2022)
Where two headings read alike, the source gives them in different places.

Tests used:
[1] = Pharmacokinetic study in rats: dry powder insufflation of TFF-CBD and intravenous CBD solution; format: in vivo; conditions: plasma, intravenous solution 10 mg/kg, rat, read-out: Cannabidiol concentration in rat plasma, Intravenous
Experimental: A dry powder formulation for inhalation containing 25% (w/w) of Cannabidiol (CBD) was developed using TFF technology, and a pharmacokinetic (PK) study in rats was performed using PennCentury™ DP4 dry powder Insufflator™ with a target delivered dose of 10 mg/kg CBD. […] For comparison and in contrast to the plasma levels of this TFF-CBD inhaled powder, in an inhaled CBD pharmacokinetic study in rats reported by Hložek et al. (2017) using CBD dissolved in a ethanolic solution and vaporized using heat, the inventors calculated based on information in this paper the administered amount of CBD as the delivered dose of 1.798 mg, or 7.98 mg/kg (calculated according Wang et al., 2014; DD=C×RMV×D, where DD is the delivered dose in mg, C is the concentration of drug powder in air in mg/L, RMV is the respiratory minute volume of a rat in L/min (RMV (L/min) for rats is calculated as =0.608×BW (kg)^0.852), and D is the exposure duration in min; based on 20 mg CBD nebulized into 9.5 L dosing chamber; a calculated RMV of 0.17 L/min, an average body weight of 225 g and exposure time of 5 min). […] There is a difference between this TFF-CBD inhaled powder that maintained relatively constant plasma levels over 8 hours compared to the rapid decline in serum levels of inhaled CBD ethanolic solution reported by Hložek et al. (2017). Possible explanations include that the TFF-CBD powder can better avoid lung clearance and that the TFF-CBD powder particles deposited in the lungs continue to dissolve and be absorbed from the lungs to plasma. (Beinborn et al., 2012; Wang et al., 2014; Carvalho et al., 2014). […] For comparison, based on CBD plasma levels of Huntington's disease patients, as reported by Consroe et al. (1991), the orally administered CBD dose of 10 mg/kg/day, which is the recommended maintenance dose of Epidiolex®, for 6 weeks by oral administration resulted a steady state CBD plasma level between 5.9 and 11.2 ng/mL.
To study of plasma level with lower dose of the TFF-CBD powder by dry powder inhalation, another pharmacokinetic study in rats was performed using PennCentury™ DP4 dry powder Insufflator™ with a target delivered dose of 3 mg/kg and 1 mg/kg CBD. […] In other words, TFF-CBD dry powder inhalation was more efficient in delivering CBD than the vaporized CBD liquid. Therefore, delivery of TFF-CBD powder by dry powder inhalation requires a lower dose to reach the similar systemic levels of CBD as compared to vaporized CBD liquid by inhalation, thus showing TFF-CBD will present better efficacy at equivalent doses.

[2] = Huntington's disease patients, oral 10 mg/kg/day for 6 weeks; cited from earlier work
[3] = rat, 7.98 mg/kg, cited from earlier work; for CBD serum level: vaporized CBD, by four hours

Question: What does the source list for `C=C(C)[C@@H]1CCC(C)=C[C@H]1c1c(O)cc(CCCCC)cc1O` [Cannabidiol]?
Answer: concentration at 0.083 h ([1]; n=5, 0.083 h): 4280 ± 891 ng/mL; concentration at 0.25 h ([1]; n=5, 0.25 h): 1770 ± 297 ng/mL; concentration at 0.5 h ([1]; n=5, 0.5 h): 1040 ± 217 ng/mL; concentration at 1 h ([1]; n=5, 1 h): 601 ± 193 ng/mL; concentration at 2 h ([1]; n=5, 2 h): 272 ± 112 ng/mL; concentration at 4 h ([1]; n=5, 4 h): 50 ± 23 ng/mL; concentration at 8 h ([1]; n=5, 8 h): 16.1 ± 11.3 ng/mL; effect of the dosing level in Huntington's disease [2]: neither symptomatically effective nor toxic; CBD serum level, peak ([3]; vaporized CBD ethanolic solution, immediately after removal from inhalation dosing chamber): about 220 ng/mL; CBD serum level ([3]; listed as CBD): less than 20 ng/mL; CBD serum level [3]: below 20 ng/mL
